From paper PMC3610344, “Differential Cytotoxicity Responses by Dog and Rat Hepatocytes to Phospholipogenic Treatments” (Journal of Toxicology, 2013)
Where two headings read alike, the source gives them in different places.

What was measured:
splenocyte = test system: splenocyte; parameters: method as in PMID 16463016; settings: in vitro, tested independently; cited from earlier work
rat hepatocytes [1] = test: NBD-PE accumulation assay in rat hepatocytes; type: cell-based, Han Wistar rats; settings: for NBD-PE accumulation, control activity: 300 μM, N = 1
Text: (§1) Primary rat hepatocytes were freshly isolated from Han Wistar rats at AstraZeneca, using the collagenase perfusion method (Selgen, PO, 1976). Primary dog hepatocytes were isolated at AstraZeneca, or purchased from CellzDirect Corp. (Durham, NC), which also uses a collagenase perfusion method. Cells were centrifuged and resuspended in hepatocyte culture media, consisting of Williams E basal media (Sigma-Aldrich, Inc., St. Louis, MO) 5% Hyclone fetal bovine serum (ThermoFisher Scientific Inc., Rockford, IL), 15 mM HEPES (Mediatech Inc., Manassas, VA), 100 units/mL penicillin/streptomycin, 200 μM l-glutamine, 1X ITS (insulin, transferrin, selenium solution from Mediatech Inc.), and 30 nM dexamethasone (Sigma-Aldrich). Cells were suspended at 2.5 × 10^5 cell/mL and added to BD Biocoat collagen I coated microtiter plates at 100 μL/well, for a final count of 25,000 cells/well. Selection criterion for use of initial isolates was 85% minimal viability. Cells were incubated at 37°C in a CO2 incubator for 4 h to allow for cell attachment. Media was aspirated and replaced with hepatocyte culture media without fetal bovine serum and supplemented with 150 μg/mL Matrigel collagen matrix (BD Inc.). Cells were incubated in a CO2 incubator for 24 h, the media was replaced with hepatocyte culture media, and the cells were incubated for an additional 24 h. Compounds were solubilized in DMSO, water, or ethanol to 1000X stock and then diluted to 1X in media. All conditions contained equal concentrations of vehicle.
(§2) In a modification of the procedure described by Morelli et al., hepatocytes were treated with drugs diluted into culture media containing 12 μg/mL NBD-PE (N-(7-nitrobenz-2-oxa-1,3-diazol-4-yl)-1,2-dihexadecanoyl-sn-glycero-3-phosphoethanolamine, triethylammonium salt) for 24 hours. At the end of the treatment period, Sytox orange (100 nM Invitrogen Inc.) was added to cells for 20 minutes prior to fixation. This fluorescent dye stains only cells with compromised cell membranes thereby enabling their exclusion from NBD-PE cell quantitation by the Cellomics ArrayScan instrument. Media were aspirated, cells were washed with 1X PBS and fixed by the addition of 100 μL PBS containing 3.7% formaldehyde, and 1 μg/mL Hoechst dye. Fixation was allowed to proceed for 30 min at RT, and cells were washed three times with 1X PBS, and sealed for imaging. Labeled cells were analyzed using the Cellomics Arrayscan instrument (Cellomics Inc., Pittsburgh, PA) with version 3.5 equipment and software. The ArrayScan captures fluorescent images in the 3 channels relevant to this assay (Hoechst, TRITC for Sytox staining and FITC for NBD-PE staining) and performs automated image analysis to quantify cell nuclei, the number of dead cells, and NBD-PE dye fluorescent intensity. The analysis algorithms that enable cell versus well-based detection were purchased from Cellomics Inc. and are referred to as Cell Health Profiling (CHP) and Target Activation (TA) algorithms. […] NBD-PE peak signal was defined as the maximal response.

dog hepatocytes [2] = test: NBD-PE accumulation assay in dog hepatocytes; type: cell-based; settings: for NBD-PE accumulation, control activity: 300 μM, 24 h, N = 1
Text: as §1, with “Cells were incubated in a CO2 incubator for 24 h, the media was replaced with hepatocyte culture media, and the cells were incubated for an additional 24 h. Compounds were solubilized in DMSO, water, or ethanol to 1000X stock and then diluted to 1X in media. All conditions contained equal concentrations of vehicle.” left out
In a modification of the procedure described by Morelli et al., hepatocytes were treated with drugs diluted into culture media containing 12 μg/mL NBD-PE (N-(7-nitrobenz-2-oxa-1,3-diazol-4-yl)-1,2-dihexadecanoyl-sn-glycero-3-phosphoethanolamine, triethylammonium salt) for 24 hours. […] This fluorescent dye stains only cells with compromised cell membranes thereby enabling their exclusion from NBD-PE cell quantitation by the Cellomics ArrayScan instrument. […] Labeled cells were analyzed using the Cellomics Arrayscan instrument (Cellomics Inc., Pittsburgh, PA) with version 3.5 equipment and software. The ArrayScan captures fluorescent images in the 3 channels relevant to this assay (Hoechst, TRITC for Sytox staining and FITC for NBD-PE staining) and performs automated image analysis to quantify cell nuclei, the number of dead cells, and NBD-PE dye fluorescent intensity. […]

rat hepatocytes [3] = test: cells; type: cell-based; settings: for IC50: 24 h treatment, read-out: Survival IC50; for % survival: average ± std dev
dog hepatocytes [4] = test: Cell survival of primary dog hepatocytes (Cellomics Arrayscan); type: cell-based; settings: for IC50: 24 h treatment
Text: as §1, §2

[5] = test system: isolated rat mitochondria; parameters: method as in PMID 17917797; settings: cited from earlier work
dog liver = test: Preclinical in vivo toxicology studies in dog
rat liver = test: Preclinical in vivo toxicology studies in rat
rat hepatocytes [6] = test: Acridine orange lysosomal staining time course in rat hepatocytes; type: cell-based, Han Wistar rats
rat hepatocytes [7] = test: Mitochondrial membrane potential (JC-1 fluorescence) in rat hepatocytes; type: cell-based, Han Wistar rats
Text: as §1
JC-1 was added to cell cultures at a concentration of 5 μg/mL for 30 minutes to allow for cellular accumulation. Media were then aspirated and replaced with fresh media containing drugs of interest without JC-1. Fluorescence was detected using a spectrofluorometer. The ratio of red to green signals was calculated and converted to % control for graphing and analysis.

[8] = Rattus norvegicus, Hepatocyte, 24 h
[9] = Canis lupus familiaris, Hepatocyte, 24 h
[10] = 1-month toxicology study, comparable plasma exposures, unpublished observations
[11] = preclinical toxicology studies (1-month for compound A), unpublished observations / data not shown

Q: For `Nc1ccc(N2CCOCC2)cc1` [compound D], which “Phospholipogenic response in splenocyte model” value (“Phospholipogenic response” for short) (splenocyte) is on record?
A: Its value is “negative”.

Q: And the “NBD-PE accumulation, control activity” value (rat hepatocytes [1]; 24 h)?
A: Its value is 101%.

Q: What about the “NBD-PE accumulation, control activity” value (dog hepatocytes [2]) of the same compound?
A: The value was 140%.

Q: What about the IC50 (rat hepatocytes [3]; [8]) of the same compound?
A: Its IC50 is over 300 µM.

Q: What about the IC50 (dog hepatocytes [4]; [9]) of the same compound?
A: The IC50 was over 300 µM.

Q: For `CO/C1=C\C(C)=C\[C@@H](C)[C@@H](O)[C@@H](C)C/C(C)=C/C=C/[C@H](OC)[C@@H]([C@@H](C)[C@@H](O)[C@H](C)[C@@]2(O)C[C@@H](O)[C@H](C)[C@@H](C(C)C)O2)OC1=O` [Baf, Bafilomycin A1, reference compound], which “Increase in control NBD-PE fluorescent staining” value (rat hepatocytes [1]; 100 nM Baf) is on record?
A: Its value is 2 fold.

Q: And the “Minimal concentration affecting mitochondrial functions (potassium uptake, swelling, loss of membrane potential, uncoupling)” value [5]?
A: Its value is 50 nM.

Q: And the “Increase in control NBD-PE fluorescent staining” value (dog hepatocytes [2]; 100 nM Baf)?
A: Its value is 2 fold.

Q: Which results are given for `CCN(CCO)CCCC(C)Nc1ccnc2cc(Cl)ccc12` (centres unmarked) [Hydroxychloroquine, reference compound]?
A: IC50 (rat hepatocytes [3]): > 300 µM; IC50 (rat hepatocytes [3]; [8]): 220 µM; Change in survival (rat hepatocytes [3]; control condition without Baf, 24 h): 25–35%; IC50 (dog hepatocytes [4]): 159 µM; IC50 (dog hepatocytes [4]; [9]): 90 µM

Q: Which “Phospholipogenic response” value (splenocyte) does the source give for `O=C(O)Cc1ccccc1Nc1c(Cl)cccc1Cl` [Diclofenac, reference compound] here?
A: The value was “negative”.

Q: What about the IC50 (rat hepatocytes [3]; [8]) of the same compound?
A: Its IC50 is 832 µM.

Q: What about the IC50 (dog hepatocytes [4]; [9]) of the same compound?
A: Its IC50 is 656 µM.

Q: Which “Centrilobular necrosis of liver” value (dog liver; [10]) does the source give for `COc1cc2c(c(N3CCN(C)CC3)c1)O[C@@H](C(=O)Nc1ccc(N3CCOCC3)cc1)CC2` [compound A] here?
A: Its value is “only dog had concomitant centrilobular necrosis”.

Q: What about the IC50 (rat hepatocytes [3]; Hepatocyte) of the same compound?
A: Its IC50 is over 450 µM.

Q: What about the IC50 (dog hepatocytes [4]; Canis lupus familiaris, Hepatocyte) of the same compound?
A: The IC50 was 298 ± 22 µM.

Q: And the “Centrilobular necrosis of liver” value (rat liver; [10])?
A: Its value is “only dog had concomitant centrilobular necrosis”.

Q: Which “Phospholipogenic response” value (splenocyte) does the source give for `CCCc1cccc2c(N)c(C(=O)NCC3CC3)nnc12` [compound C] here?
A: Its value is “negative”.

Q: And the “NBD-PE accumulation, control activity” value (rat hepatocytes [1]; 24 h)?
A: Its value is 95%.

Q: What about the “NBD-PE accumulation, control activity” value (dog hepatocytes [2]) of the same compound?
A: Its value is 121%.

Q: What about the IC50 (rat hepatocytes [3]; [8]) of the same compound?
A: The IC50 was over 300 µM.

Q: What about the IC50 (dog hepatocytes [4]; [9]) of the same compound?
A: Its IC50 is over 300 µM.

Q: With `COc1cc2c(c(N3CCN(C)CC3)c1)O[C@@H](C(=O)Nc1ccc(N3CCOCC3)c(F)c1)CC2` [B] as the compound, how does the “Phospholipogenic response” value (splenocyte) read?
A: The value was “phospholipogenic”.

Q: And the IC50 (rat hepatocytes [3]; [8])?
A: The IC50 was over 300 µM.

Q: What about the IC50 (dog hepatocytes [4]; [9]) of the same compound?
A: The IC50 was 153 ± 63 µM.

Q: Which results are given for `Cc1ccc(N2CCN(C)CC2)c2c1CC[C@@H](NC(=O)c1ccc(N3CCOCC3)cc1)C2` [NMTMB, N-[(2R)-5-methyl-8-(4-methylpiperazin-1-yl)tetralin-2-yl]-4-morpholino-benzamide]?
A: NBD-PE accumulation (rat hepatocytes [1]; 50 μM, 24 h): 4 fold vehicle control; EC50 (rat hepatocytes [1]; Hepatocyte, approximate, estimated from left-hand portion of bell-shaped curve): ~65 µM; Phospholipidosis (PLD) in vivo (dog liver; [11]): confirmed multiorgan in vivo phospholipogenics; Drop in cell survival (rat hepatocytes [3]; 100 μM, 8 h treatment): 40%; Hepatocytes surviving (rat hepatocytes [3]; 100 μM, 24 hr): ~ 80%; % survival (rat hepatocytes [3]; 300 μM NMTMB alone): 9.3 ± 4%; % survival (rat hepatocytes [3]; 300 μM NMTMB cotreated with PADK): 51 ± 8.5%; Survival compared to control (rat hepatocytes [3]; 300 μM, 2 h): 20%; Cell death (rat hepatocytes [3]; 300 μM, 4 h): cell death was complete; IC50 (rat hepatocytes [3]): 148 ± 41 µM; IC50 (rat hepatocytes [3]; [8]): 159 µM; AO spot count (rat hepatocytes [6]; 100 μM, up to 8 h): maintained or exceeded control levels; AO spot count (rat hepatocytes [6]; 300 μM, by 4 h): ~0%; Decline of AO spot count compared to control (rat hepatocytes [6]; 300 μM, within 30 minutes): ~50%; Cells dead (dog hepatocytes [4]; 50 μM, 24 h): ~ 70%; Cell death (dog hepatocytes [4]; 100 μM, 24 hr): complete cell death; IC50 (dog hepatocytes [4]; [9]): 37 ± 13 µM; Time to maximum hyperpolarization (rat hepatocytes [7]; 100 μM): ≤ 2 h; Time to mitochondria hyperpolarization (rat hepatocytes [7]; 100 μM): ≤ 1 h; Mitochondrial polarization status (rat hepatocytes [7]; 300 μM): mitochondria depolarization was observed within the first hour; Mitochondrial polarization status with Baf cotreatment (rat hepatocytes [7]; 300 μM NMTMB plus 30 nM Baf, by 1 h): marked shift from mitochondrial depolarization to a hyperpolarized state; Phospholipidosis (PLD) in vivo (rat liver; [11]): confirmed multiorgan in vivo phospholipogenics
